Assays:
[1] = system: white mustard Sinapsis alba; test: Herbicidal efficacy screen, potter tower spray, necrosis assessed; format: in vivo
Protocol: (§1) Compounds 22, 23 and 24 were screened for herbicidal efficacy against target plants: garden cress, Lepidium sativum, common chickweed, Stellaria media, and white mustard […] alba Plants were obtained as seeds and were grown to the 2-4 true leaf stage. Plants were grown under laboratory conditions, individually in seed trays. Each plant (in an approximately 3 cm diameter plug) was then detached from the tray for spraying. The compounds were screened at a range of five concentrations, diluted in acetone and TweenTM. A carrier only control was also conducted. Treatments were applied directly onto the plants, using a potter tower, at a specified application rate. One plant of each species was sprayed using a potter tower. The 3 different types of plants were placed on a 10 cm diameter platform directly beneath the potter sprayer and sprayed simultaneously. The growth of the plants and any Phytotoxicity effects were then assessed at intervals over 21 days, according to EPPO guideline PP1/135. Five replicas were performed for each treatment, for each species. In the tables below C represents a percentage increase in necrosis relative to the control of 0.1-50; B represents a percentage inhibition of 50-80; and A represents a percentage inhibition of 80-100.

[2] = system: garden cress, Lepidium sativum; test: as above; format: in vivo
Protocol: as §1

[3] = 12.5 g/ha, day 3 post application
[4] = 12.5 g/ha, day 4 post application
[5] = 12.5 g/ha, day 5 post application
[6] = 12.5 g/ha, day 7 post application
[7] = 12.5 g/ha, day 10 post application
[8] = 25 g/ha, day 1 post application
[9] = 25 g/ha, day 2 post application
[10] = 25 g/ha, day 3 post application
[11] = 25 g/ha, day 4 post application
[12] = 25 g/ha, day 5 post application
[13] = 25 g/ha, day 7 post application
[14] = 25 g/ha, day 10 post application
[15] = 50 g/ha, day 1 post application
[16] = 50 g/ha, day 2 post application
[17] = 50 g/ha, day 3 post application
[18] = 50 g/ha, day 4 post application
[19] = 50 g/ha, day 5 post application
[20] = 50 g/ha, day 7 post application
[21] = 50 g/ha, day 10 post application
[22] = 100 g/ha, day 1 post application
[23] = 100 g/ha, day 2 post application
[24] = 100 g/ha, day 3 post application
[25] = 100 g/ha, day 4 post application
[26] = 100 g/ha, day 5 post application
[27] = 100 g/ha, day 7 post application
[28] = 100 g/ha, day 10 post application
[29] = 200 g/ha, day 1 post application
[30] = 200 g/ha, day 2 post application
[31] = 200 g/ha, day 3 post application
[32] = 200 g/ha, day 4 post application
[33] = 200 g/ha, day 5 post application
[34] = 200 g/ha, day 7 post application
[35] = 200 g/ha, day 10 post application

Structure (SMILES): CC(C)C(C)S(=O)(=O)NCc1cc(-n2c(=O)cc(C(F)(F)F)n(C)c2=O)c(F)cc1Cl (centres unmarked) [Compound 24, N-[[2-Chloro-4-fluoro-5-[3-methyl-2,6-dioxo-4-(trifluoromethyl)pyrimidin-1-yl]phenyl]methyl]-3-methyl-butane-2-sulfonamide]
- Average of necrosis [1, 3]: C (C represents a percentage increase in necrosis relative to the control of 0.1-50)
- Average of necrosis [1, 4]: C (C represents a percentage increase in necrosis relative to the control of 0.1-50)
- Average of necrosis [1, 5]: C (C represents a percentage increase in necrosis relative to the control of 0.1-50)
- Average of necrosis [1, 6]: C (C represents a percentage increase in necrosis relative to the control of 0.1-50)
- Average of necrosis [1, 7]: C (C represents a percentage increase in necrosis relative to the control of 0.1-50)
- Average of necrosis [1, 8]: C (C represents a percentage increase in necrosis relative to the control of 0.1-50)
- Average of necrosis [1, 9]: C (C represents a percentage increase in necrosis relative to the control of 0.1-50)
- Average of necrosis [1, 10]: C (C represents a percentage increase in necrosis relative to the control of 0.1-50)
- Average of necrosis [1, 11]: C (C represents a percentage increase in necrosis relative to the control of 0.1-50)
- Average of necrosis [1, 12]: C (C represents a percentage increase in necrosis relative to the control of 0.1-50)
- Average of necrosis [1, 13]: C (C represents a percentage increase in necrosis relative to the control of 0.1-50)
- Average of necrosis [1, 14]: C (C represents a percentage increase in necrosis relative to the control of 0.1-50)
- Average of necrosis [1, 15]: C (C represents a percentage increase in necrosis relative to the control of 0.1-50)
- Average of necrosis [1, 16]: C (C represents a percentage increase in necrosis relative to the control of 0.1-50)
- Average of necrosis [1, 17]: C (C represents a percentage increase in necrosis relative to the control of 0.1-50)
- Average of necrosis [1, 18]: C (C represents a percentage increase in necrosis relative to the control of 0.1-50)
- Average of necrosis [1, 19]: C (C represents a percentage increase in necrosis relative to the control of 0.1-50)
- Average of necrosis [1, 20]: C (C represents a percentage increase in necrosis relative to the control of 0.1-50)
- Average of necrosis [1, 21]: C (C represents a percentage increase in necrosis relative to the control of 0.1-50)
- Average of necrosis [1, 22]: C (C represents a percentage increase in necrosis relative to the control of 0.1-50)
- Average of necrosis [1, 23]: C (C represents a percentage increase in necrosis relative to the control of 0.1-50)
- Average of necrosis [1, 24]: C (C represents a percentage increase in necrosis relative to the control of 0.1-50)
- Average of necrosis [1, 25]: C (C represents a percentage increase in necrosis relative to the control of 0.1-50)
- Average of necrosis [1, 26]: C (C represents a percentage increase in necrosis relative to the control of 0.1-50)
- Average of necrosis [1, 27]: C (C represents a percentage increase in necrosis relative to the control of 0.1-50)
- Average of necrosis [1, 28]: C (C represents a percentage increase in necrosis relative to the control of 0.1-50)
- Average of necrosis [1, 29]: C (C represents a percentage increase in necrosis relative to the control of 0.1-50)
- Average of necrosis [1, 30]: C (C represents a percentage increase in necrosis relative to the control of 0.1-50)
- Average of necrosis [1, 31]: C (C represents a percentage increase in necrosis relative to the control of 0.1-50)
- Average of necrosis [1, 32]: C (C represents a percentage increase in necrosis relative to the control of 0.1-50)
- Average of necrosis [1, 33]: C (C represents a percentage increase in necrosis relative to the control of 0.1-50)
- Average of necrosis [1, 34]: C (C represents a percentage increase in necrosis relative to the control of 0.1-50)
- Average of necrosis [1, 35]: C (C represents a percentage increase in necrosis relative to the control of 0.1-50)
- Average of necrosis ([2]; 12.5 g/ha, day 1 post application): C (C represents a percentage increase in necrosis relative to the control of 0.1-50)
- Average of necrosis ([2]; 12.5 g/ha, day 2 post application): C (C represents a percentage increase in necrosis relative to the control of 0.1-50)
- Average of necrosis [2, 3]: C (C represents a percentage increase in necrosis relative to the control of 0.1-50)
- Average of necrosis [2, 4]: C (C represents a percentage increase in necrosis relative to the control of 0.1-50)
- Average of necrosis [2, 5]: C (C represents a percentage increase in necrosis relative to the control of 0.1-50)
- Average of necrosis [2, 6]: C (C represents a percentage increase in necrosis relative to the control of 0.1-50)
- Average of necrosis [2, 7]: B (B represents a percentage inhibition of 50-80)
- Average of necrosis [2, 8]: C (C represents a percentage increase in necrosis relative to the control of 0.1-50)
- Average of necrosis [2, 9]: C (C represents a percentage increase in necrosis relative to the control of 0.1-50)
- Average of necrosis [2, 10]: C (C represents a percentage increase in necrosis relative to the control of 0.1-50)
- Average of necrosis [2, 11]: C (C represents a percentage increase in necrosis relative to the control of 0.1-50)
- Average of necrosis [2, 12]: C (C represents a percentage increase in necrosis relative to the control of 0.1-50)
- Average of necrosis [2, 13]: C (C represents a percentage increase in necrosis relative to the control of 0.1-50)
- Average of necrosis [2, 14]: C (C represents a percentage increase in necrosis relative to the control of 0.1-50)
- Average of necrosis [2, 15]: C (C represents a percentage increase in necrosis relative to the control of 0.1-50)
- Average of necrosis [2, 16]: C (C represents a percentage increase in necrosis relative to the control of 0.1-50)
- Average of necrosis [2, 17]: B (B represents a percentage inhibition of 50-80)
- Average of necrosis [2, 18]: B (B represents a percentage inhibition of 50-80)
- Average of necrosis [2, 19]: B (B represents a percentage inhibition of 50-80)
- Average of necrosis [2, 20]: A (A represents a percentage inhibition of 80-100)
- Average of necrosis [2, 21]: A (A represents a percentage inhibition of 80-100)
- Average of necrosis [2, 22]: C (C represents a percentage increase in necrosis relative to the control of 0.1-50)
- Average of necrosis [2, 23]: C (C represents a percentage increase in necrosis relative to the control of 0.1-50)
- Average of necrosis [2, 24]: C (C represents a percentage increase in necrosis relative to the control of 0.1-50)
- Average of necrosis [2, 25]: B (B represents a percentage inhibition of 50-80)
- Average of necrosis [2, 26]: B (B represents a percentage inhibition of 50-80)
- Average of necrosis [2, 27]: B (B represents a percentage inhibition of 50-80)
- Average of necrosis [2, 28]: B (B represents a percentage inhibition of 50-80)
- Average of necrosis [2, 29]: C (C represents a percentage increase in necrosis relative to the control of 0.1-50)
- Average of necrosis [2, 30]: C (C represents a percentage increase in necrosis relative to the control of 0.1-50)
- Average of necrosis [2, 31]: C (C represents a percentage increase in necrosis relative to the control of 0.1-50)
- Average of necrosis [2, 32]: C (C represents a percentage increase in necrosis relative to the control of 0.1-50)
- Average of necrosis [2, 33]: C (C represents a percentage increase in necrosis relative to the control of 0.1-50)
- Average of necrosis [2, 34]: C (C represents a percentage increase in necrosis relative to the control of 0.1-50)
- Average of necrosis [2, 35]: B (B represents a percentage inhibition of 50-80)

Reference: US9951028B2, “Agricultural chemicals” (REDAG CROP PROTECTION LTD, priority 2013, dated 2018)
